From ChEMBL document CHEMBL1201862, “PubChem BioAssay data set” (2004)
Activity calls are given as the source filed them.

Key:
[1] = viability loss in HepG2 hepatoma cells – cell-based, cherry-picks, set 5, cytotoxicity control, dose response (AID 1053118); type: functional
[2] = viability loss in HEK293 kidney cells – cell-based, cherry-picks, set 5, cytotoxicity control, dose response (AID 1053117); type: functional
[3] = viability loss in A549 lung cancer cells – cell-based, cherry-picks, […], cytotoxicity control, dose response (AID 1053119); type: functional
[4] = Late stage assay provider results from the probe development effort to identify selective inhibitors of heat shock protein 90 (HSP90): Absorbance-based cell proliferation assay in SKBR3 cells.; type: functional; settings: SK-BR-3
[5] = Late stage assay provider results from the probe development effort to identify selective inhibitors of heat shock protein 90 (HSP90): Absorbance-based cell proliferation assay in MCF7 cells.; type: functional
[6] = viability loss in MITF-independent A375 cells – cell-based, CellTiter-Glo luminescence, dry powder, set 2, counter-screen for MITF inhibitor project, dose response (AID 624489); type: functional; settings: A-375;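 also: actives are compounds lowering A375 viability meaning general cytotoxicity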
[7] = cytotoxicity in MITF-independent A375 cells – cell-based, CellTiter-Glo luminescence, dry powder, set 4, counter-screen for MITF inhibitor project, dose response (AID 624364); type: functional; settings: A-375;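 also: A375 melanoma cells are MITF independent so this is a counter screen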
[8] = target: Potassium channel subfamily K member 9 (Homo sapiens, UniProt Q9NPC2); assay: KCNK9 flux blockade, concentration-response – cell-based, FluxOR thallium flux, selectivity assay for TASK1 inhibitor project, SAR follow-up (AID 652211); type: functional;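 also: potency is for inhibitors of the channel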
Sequence of Potassium channel subfamily K member 9 (Q9NPC2 whole entry): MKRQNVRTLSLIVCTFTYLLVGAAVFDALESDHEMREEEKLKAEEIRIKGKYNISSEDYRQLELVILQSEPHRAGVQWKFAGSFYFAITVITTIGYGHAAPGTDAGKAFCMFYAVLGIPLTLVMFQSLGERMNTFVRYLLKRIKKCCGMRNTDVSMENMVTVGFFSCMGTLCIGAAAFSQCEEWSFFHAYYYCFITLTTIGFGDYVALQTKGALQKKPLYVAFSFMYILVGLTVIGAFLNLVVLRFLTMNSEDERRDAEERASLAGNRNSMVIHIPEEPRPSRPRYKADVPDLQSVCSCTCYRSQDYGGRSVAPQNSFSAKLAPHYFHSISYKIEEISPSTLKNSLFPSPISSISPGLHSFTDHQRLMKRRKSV

[9] = target: Potassium channel subfamily K member 3 (Homo sapiens, UniProt O14649); assay: inhibition of human KCNK3 channel flux – CHO cells, FluxOR thallium flux, SAR follow-up (AID 652212); type: functional
Sequence of Potassium channel subfamily K member 3 (O14649 whole entry): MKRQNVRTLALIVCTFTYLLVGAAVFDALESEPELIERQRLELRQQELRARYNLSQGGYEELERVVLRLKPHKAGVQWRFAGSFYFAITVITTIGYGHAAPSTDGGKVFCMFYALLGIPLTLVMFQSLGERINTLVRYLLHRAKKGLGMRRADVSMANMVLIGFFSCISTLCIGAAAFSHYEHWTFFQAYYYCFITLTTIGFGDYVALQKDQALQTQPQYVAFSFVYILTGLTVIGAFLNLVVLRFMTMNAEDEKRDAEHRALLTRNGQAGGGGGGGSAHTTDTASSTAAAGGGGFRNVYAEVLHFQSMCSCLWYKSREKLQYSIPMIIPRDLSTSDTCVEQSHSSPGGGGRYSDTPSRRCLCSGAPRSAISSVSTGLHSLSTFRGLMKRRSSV

[10] = target: Endoplasmic reticulum aminopeptidase 1 (Homo sapiens, UniProt Q9NZ08); assay: inhibition of human ERAP1 enzyme activity – biochemical, cherry-pick, set 2, plate reader, dose response (AID 743314)
Sequence of Endoplasmic reticulum aminopeptidase 1 (Q9NZ08 whole entry): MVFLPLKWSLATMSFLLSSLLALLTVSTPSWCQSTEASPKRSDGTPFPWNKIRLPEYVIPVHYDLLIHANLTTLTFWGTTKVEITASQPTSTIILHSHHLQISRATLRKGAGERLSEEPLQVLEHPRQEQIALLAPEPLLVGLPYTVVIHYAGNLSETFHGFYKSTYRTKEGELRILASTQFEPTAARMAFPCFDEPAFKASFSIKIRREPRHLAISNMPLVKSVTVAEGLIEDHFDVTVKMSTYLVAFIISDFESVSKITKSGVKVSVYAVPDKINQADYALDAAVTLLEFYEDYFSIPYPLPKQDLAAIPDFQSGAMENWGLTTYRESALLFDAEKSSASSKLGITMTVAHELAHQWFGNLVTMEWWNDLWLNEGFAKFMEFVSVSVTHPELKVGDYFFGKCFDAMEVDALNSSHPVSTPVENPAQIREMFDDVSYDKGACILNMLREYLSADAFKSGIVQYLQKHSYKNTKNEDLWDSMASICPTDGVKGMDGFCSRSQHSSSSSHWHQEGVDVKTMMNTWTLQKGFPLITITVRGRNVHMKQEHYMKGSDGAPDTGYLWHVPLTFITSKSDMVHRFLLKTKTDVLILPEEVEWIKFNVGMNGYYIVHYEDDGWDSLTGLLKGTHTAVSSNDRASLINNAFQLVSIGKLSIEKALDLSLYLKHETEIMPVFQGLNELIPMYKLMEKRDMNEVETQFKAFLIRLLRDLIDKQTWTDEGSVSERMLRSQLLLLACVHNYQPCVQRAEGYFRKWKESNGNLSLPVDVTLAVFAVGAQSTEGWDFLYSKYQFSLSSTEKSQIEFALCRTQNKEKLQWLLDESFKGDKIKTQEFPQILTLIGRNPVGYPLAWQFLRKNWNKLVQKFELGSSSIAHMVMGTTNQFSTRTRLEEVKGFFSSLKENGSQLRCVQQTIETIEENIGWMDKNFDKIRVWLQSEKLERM

[11] = anti-trypanosomal activity in BESM host cells – imaging, CA-I/72 strain, bovine embryo skeletal muscle, dry powder, dose response (AID 651885); type: functional, cell-based
[12] = T. cruzi growth inhibition in host cells, dose response, cell-based, plate reader, dry powder, set 2 (AID 652275); type: functional
[13] = mouse embryonic fibroblast toxicity – cell-based, plate reader, dry powder, set 2, cytotoxicity control, dose response (AID 652280); type: functional; settings: NIH3T3
[14] = general mammalian cell viability loss – activator set, cherry-pick, cytotoxicity control for miR-122 modulator project, dose response (AID 720690); type: functional, cell-based;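 also: HEK293T human cells scored for general mammalian cytotoxicity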
[15] = general mammalian cell viability loss – inhibitor set, cherry-pick, set 2, cytotoxicity control for miR-122 modulator project, dose response (AID 720697); type: functional, cell-based
[16] = Luminescence-based cell-based high throughput dose response assay to identify activators of the DAF-12 from the parasite S. stercoralis (ssDAF-12).; type: functional
[17] = embryonic kidney cell viability loss – CellTiter-Glo luminescence, dry powder, set 20, cytotoxicity control, dose response (AID 1117293); type: functional, cell-based; settings: HEK293
[18] = toxicity to HepG2 liver cells – cell-based, plate reader, dry powder, set 6, cytotoxicity control, dose response (AID 743311); type: functional
[19] = toxicity to A549 lung cells – cell-based, plate reader, dry powder, set 6, cytotoxicity control, dose response (AID 743312); type: functional
cells = settings: HEK293
[20] = inhibitors of TRPM1-promoter reporter in SK-MEL-5 – cell-based, luciferase, dry powder, set 8, MITF inhibitor project, dose response (AID 624430); type: functional
[21] = MITF: Counter assay: A375 proliferation Measured in Cell-Based System Using Plate Reader - 2084-03_Inhibitor_Dose_DryPowder_Activity_Set8.; type: functional; settings: A-375
[22] = MITF Orthogonal Assay: SK-MEL-5 CTG Assay Measured in Cell-Based System Using Plate Reader - 2084-02_Inhibitor_Dose_DryPowder_Activity_Set7.; type: functional

CO[C@H]1CN(C)C(=O)c2cc(NC(=O)Nc3ccc(Cl)c(Cl)c3)ccc2OC[C@H](C)NC[C@@H]1C
AC50 [1]: 13 µM (active)
AC50 [2]: 12.8 µM (active)
AC50 [3]: 12.9 µM (active)

O=C1OC(=O)/C(=C\NCCC2=CCCCC2)C=C1Br
IC50 [4]: 8 µM (active)
IC50 [5]: 3 µM (active)

O=C(NC1=C(c2ccc(OC(F)(F)F)cc2)C(=O)c2ccccc2C1=O)c1ccccc1F
AC50 [6]: 30.5 µM (active)
AC50 [7]: 34.4 µM (active)

CCOc1ccccc1NC(=O)c1cccc(NC(=O)c2cccc(OC)c2)c1
IC50 [8]: 2.33 µM (active)
IC50 [9]: 0.005 µM (active)

CCNC(=O)[C@H]1[C@H](CO)[C@H]2Cn3c(ccc(/C=C/c4ccccc4)c3=O)[C@@H]1N2
AC50 [10]: 11.3 µM (active)

C[C@@H]1CN([C@@H](C)CO)C(=O)c2cc(-c3cccnc3)cnc2O[C@H]1CN(C)Cc1ccc(Oc2ccccc2)cc1
IC50 [11]: > 20 µM (inactive)
AC50 [12]: 1.95 µM (active)
AC50 [13]: 11.9 µM (active)

CN1C(=O)c2cc(NS(=O)(=O)c3cccc(F)c3)ccc2OC[C@@H]2O[C@@H](CC(=O)NCCN3CCCCC3)CC[C@H]21
AC50 [14]: 26.1 µM (active)
AC50 [15]: 0.254 µM (active)

CC1=CC(c2ccccc2)=Nc2ccc(C)cc2N1
IC50 [16]: > 67.5 µM (inactive)

N#Cc1ccc(S(=O)(=O)Nc2cc(C(F)(F)F)ccc2N2CCCCC2)cc1
AC50 [17]: 46.1 µM (active)

Cc1cc2ncn(CCOc3ccc4c(c3)CCC4)c2cc1C
AC50 [18]: > 52 µM (inactive)
AC50 [19]: 24.1 µM (active)
AC50 (cells): 33 µM (active)

O=C1C=C(Nc2cccc(C(F)(F)F)c2)C(=O)c2ccccc21
AC50 [20]: > 70 µM (inactive)
AC50 [21]: > 70 µM (inactive)
AC50 [22]: 0.463 µM (active)
